In US20210379099A1 (priority 2020, published 2021):
pKd: −log10 of the molar value. Entries after “also recorded” stand apart in the source; their conditions may differ.

Experiments:
[1] = assay type: binding; conditions: read-out: Kd (Me4CB[8]•guest)
[2] = tested on: PCP-induced hyperlocomotion; experiment: In vivo reversal of PCP-induced hyperlocomotion (open field, locomotion counts); parameters: species or system mice; conditions: listed as PCP

| SMILES | pKd [1] | locomotion counts, PCP alone ([2]; experiment 1, male Swiss Webster mice n=8, PCP 2 mg/kg, 0.2 mL infusion, vs saline, Me4CB[8] alone, premix) | locomotion counts, PCP alone ([2]; experiment 2, male Swiss Webster mice n=9, PCP 1.95 mg/kg, vs saline and sequential infusions) |
| --- | --- | --- | --- |
| CNC1(c2ccccc2Cl)CCCCC1=O (stereo not shown) [Ketamine 7, Ketamine] | 7.44 | – | – |
| c1ccc(C2(N3CCCCC3)CCCCC2)cc1 [PCP 8, Phencyclidine] | 8.70 | increased locomotion significantly; also recorded: significant increase in locomotion counts | significantly increased locomotion counts; also recorded: significant increase in locomotion counts |
